Source: patent publication US20250114389A1, “NUCLEOSIDES AND NUCLEOTIDES ANALOGS AS ANTIVIRAL AGENTS” (Emory University, priority 2021, published 2025)
Like-named read-outs stand apart in the source and are kept apart here.

How the values were obtained:
Type in all cases: cell-based
SARS-CoV2 variant Alpha [1] = assay: microbe, parasite or virus in culture
SARS-CoV2 Lineage A (Wa) [2] = assay: Antiviral activity against SARS-CoV2 Lineage A (Wa) in Calu3
SARS-CoV2 variant Delta [3] = assay: microbe, parasite or virus in culture
SARS-CoV2 variant Beta [4] = assay: microbe, parasite or virus in culture
SARS-CoV2 variant Gamma [5] = assay: microbe, parasite or virus in culture
SARS-CoV2 variant Delta [6] = assay: microbe, parasite or virus in culture; remark: listed apart in the source
SARS-CoV2 variant Beta [7] = assay: microbe, parasite or virus in culture; remark: listed apart in the source
SARS-CoV2 variant Alpha [8] = assay: microbe, parasite or virus in culture; remark: listed apart in the source
[9] = tested on: SARS-CoV2 Lineage A (Eng); assay: Antiviral activity against SARS-CoV2 Lineage A (Eng) in Calu3
SARS-CoV2 variant Gamma [10] = assay: microbe, parasite or virus in culture; remark: listed apart in the source
SARS-CoV2 Lineage A (Wa) [11] = assay: Antiviral activity against SARS-CoV2 Lineage A (Wa) in Vero
[12] = Severe acute respiratory syndrome coronavirus 2, Vero, read-out: Antiviral Activity Against SARS-CoV2 Variants in Vero, first value column
[13] = Severe acute respiratory syndrome coronavirus 2, Calu-3, read-out: Antiviral Activity Against SARS-CoV2 Variants in Calu3, first value column
[14] = Severe acute respiratory syndrome coronavirus 2, Calu-3, Calu3, read-out: Antiviral Activity Against SARS-CoV2 Variants in Calu3, first value column

| SMILES | Antiviral Activity Against SARS-CoV2 Variants in Vero (SARS-CoV2 variant Alpha [1]) | Antiviral Activity Against SARS-CoV2 Variants in Calu3, second value column (SARS-CoV2 Lineage A (Wa) [2]) | Antiviral Activity Against SARS-CoV2 Variants in Vero (SARS-CoV2 variant Delta [3]) | Antiviral Activity Against SARS-CoV2 Variants in Calu3, second value column (SARS-CoV2 variant Beta [4]) | Antiviral Activity Against SARS-CoV2 Variants in Vero (SARS-CoV2 variant Gamma [5]) | Antiviral Activity Against SARS-CoV2 Variants in Calu3, second value column (SARS-CoV2 variant Delta [6]) | Antiviral Activity Against SARS-CoV2 Variants in Vero (SARS-CoV2 variant Beta [7]) | Antiviral Activity Against SARS-CoV2 Variants in Calu3, second value column (SARS-CoV2 variant Alpha [8]) | Antiviral Activity Against SARS-CoV2 Variants in Calu3, second value column [9] | Antiviral Activity Against SARS-CoV2 Variants in Vero (SARS-CoV2 Lineage A (Wa) [11]) | also measured |
| --- | --- | --- | --- | --- | --- | --- | --- | --- | --- | --- | --- |
| N#C[C@@]1(n2ccc(N)nc2=O)O[C@H](CO)[C@@H](O)[C@H]1O [Compound A, (2R,3R,4S,5R)-2-(4-amino-2-oxopyrimidin-1(2H)-yl)-3,4-dihydroxy-5-(hydroxymethyl)-tetrahydrofuran-2-carbonitrile] | 1.2 µM | 4.5 µM | 0.3 µM | 1.2 µM | 1.0 µM | 0.1 µM | 1.4 µM | 0.4 µM | 3.6 µM | 0.4 µM | EC50 (SARS-CoV2 variant Alpha [1]; [12]): 800 nM; EC50 (SARS-CoV2 Lineage A (Wa) [2]; [13]): 1700 nM; EC50 (SARS-CoV2 variant Delta [3]; [12]): 200 nM; EC50 (SARS-CoV2 variant Beta [4]; [14]): 300 nM; EC50 (SARS-CoV2 variant Gamma [5]; [12]): 800 nM; EC50 (SARS-CoV2 variant Delta [6]; [14]): 40 nM; EC50 (SARS-CoV2 variant Beta [7]; [12]): 300 nM; EC50 (SARS-CoV2 variant Alpha [8]; [14]): 100 nM; EC50 [9, 13]: 1800 nM; Antiviral Activity Against SARS-CoV2 Variants in Calu3, second value column (SARS-CoV2 variant Gamma [10]): 1.2 µM; EC50 (SARS-CoV2 variant Gamma [10]; [14]): 1100 nM; EC50 (SARS-CoV2 Lineage A (Wa) [11]; Severe acute respiratory syndrome coronavirus 2, read-out: Antiviral Activity Against SARS-CoV2 Variants in Vero, first value column): 200 nM |
| CCC(CC)COC(=O)[C@H](C)N[P@](=O)(OC[C@H]1O[C@@](C#N)(c2ccc3c(N)ncnn23)[C@H](O)[C@@H]1O)Oc1ccccc1 [Remdesivir, reference compound] | 0.6 µM | 0.3 µM | 2.1 µM | 0.4 µM | 2.2 µM | 0.3 µM | 1.6 µM | 0.4 µM | 2.3 µM | 2.9 µM | – |
